Reference: paper PMC11249626, “Fluorophore-Labeled Pyrrolones Targeting the Intracellular Allosteric Binding Site of the Chemokine Receptor CCR1” (ACS Pharmacology & Translational Science, 2024)
Read-outs that look alike come from different tables or passages of the source.

Biological target: T1, CCR1 (Homo sapiens, UniProt P32246)
T1 sequence (P32246 1-355): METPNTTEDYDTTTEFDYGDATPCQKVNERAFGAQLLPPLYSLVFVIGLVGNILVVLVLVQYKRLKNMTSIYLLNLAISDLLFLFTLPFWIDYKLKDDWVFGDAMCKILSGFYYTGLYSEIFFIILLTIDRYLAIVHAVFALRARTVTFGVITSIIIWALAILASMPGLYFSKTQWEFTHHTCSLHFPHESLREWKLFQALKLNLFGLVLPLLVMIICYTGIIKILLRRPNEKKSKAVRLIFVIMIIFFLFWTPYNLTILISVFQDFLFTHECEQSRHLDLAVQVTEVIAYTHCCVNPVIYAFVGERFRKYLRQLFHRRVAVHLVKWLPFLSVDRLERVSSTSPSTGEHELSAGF
Experiment: Membrane-based NanoBRET association and dissociation kinetic assays with 12
Assay type: binding
Design: Promega pNLF1-C (Nluc) #CCR010TN00; host or cells: HEK293T, transient (PEI)
Experimental: Membrane-based NanoBRET association kinetic assay: 5 µL of a solution of the fluorescent ligand (12) diluted to varying concentrations (final assay concentrations: 1–3 µM) in assay buffer and 5 µL of assay buffer were transferred to a 384-well plate. For the determination of non-specific binding, we added a solution of a non-labeled competitor dissolved in assay buffer (5, final assay concentration: 10 µM) instead. After the addition of 5 µL of a furimazine solution (final assay dilution:
1:630 in assay buffer), plates were incubated for 3 minutes in the dark at ambient temperature. Subsequently, 20 µL of the membrane preparation (3 µg total protein/well) were added (final assay volume: 35 µL). BRET ratios were measured with a CLARIOstar microplate reader using 620/10 nm and 475/30 nm emission filters over time at ambient temperature.
The obtained data were analyzed using the association kinetics (one ligand concentration) algorithm in PRISM10.2.1 (GraphPad, USA) to determine association kinetics using a pre-determined koff as a constraint.
Membrane-based NanoBRET dissociation kinetic assay: 5 µL of a solution of the fluorescent ligand (12) diluted to varying concentrations (final assay concentrations: 0.25–3 µM) in assay buffer and 5 µL of assay buffer were transferred to a 384-well plate. In order to determine non-specific binding, we added a solution of a non-labeled competitor dissolved in assay buffer (5, final assay concentration: 10 µM) instead of the 5 µL of assay buffer. Then, 20 µL of the membrane preparation (3 µg total protein/well) were added, and plates were incubated for 1 h at ambient temperature in the dark.
Subsequently, 5 µL of a furimazine solution (final assay dilution: 1:630 in assay buffer) were added. Plates were incubated for further 5 minutes in the dark at ambient temperature. Thereafter, 1 µL of a solution of a […] competitor dissolved in assay buffer (5, final assay concentration: 10 µM) was added. For control experiments, we added 1 µL of assay buffer instead of the competitor solution. BRET ratios were measured with a CLARIOstar microplate reader using 620/10 nm and 475/30 nm emission filters over time at ambient temperature. Specific BRET ratios were calculated as a difference of total and non -specific binding. […]
mM HEPES, no phenol red supplemented with 5% FBS) was added and cells were incubated at 37 °C for 30 minutes.
Then, 5 µL of a solution containing the fluorescent ligand ( 12), diluted in assay medium at varying concentrations, were added in case of saturation binding experiments. To determine non-specific binding, 5 µL of a solution of 5 dissolved in assay medium (final assay concentration: 10 µM) were added. For competition binding experiments, 5 µL of a solution of the fluorescent ligand (12) diluted in assay medium (final assay concentration: 1 µM) and 5 µL of a solution of the potential competitor (diluted from 10 mM DMSO-stock solutions with assay medium) at varying concentrations were added to the corresponding wells. After 90 min of incubation at 37 °C, 5 µL of a furimazine solution (final assay dilution: 1:2500, diluted with assay medium) were added. After a further incubation of 5 min in the dark at 37 °C, BRET ratios were measured with a CLARIOstar microplate reader using 620/10 nm and 475/30 nm emission filters. Total, non-specific and specific binding, which was calculated as a difference of total and non-specific binding, were analyzed using the algorithms for one-site saturation binding in PRISM10.2.1 (GraphPad, USA). To determine the inhibition constants (Ki) of the potential competitors, data were normalized to total and non-specific binding and analyzed using the one site-fit Ki equation in PRISM10.2.1 (GraphPad, USA).
Kinetic solubility assay: Kinetic solubility was assessed in saline phosphate buffer pH 7.25 (1.19 g Na2HPO4·12 H2O, 0.095 g KH2PO4 and 4.0 g NaCl in 0.5 L double distilled water). The pH was adjusted to 7.25 with concentrated […]
hydrochloric acid. […]

Kd (CCR1_Nluc membranes, from kon and koff, read-out: kinetic KD value KD(kin.)): 317 ± 32 nM
koff (CCR1_Nluc membranes, read-out: koff (converted)): 0.00233 s⁻¹
kon (CCR1_Nluc membranes, read-out: kon (converted)): 7350 M⁻¹ s⁻¹
residence time (CCR1_Nluc membranes, read-out: residence time tr): 7.31 ± 0.22 min
kon (association at room temperature (membranes), read-out: kon, mean (Table S1) (converted)): 7360 M⁻¹ s⁻¹
tR, mean (Table S1) (dissociation at room temperature (membranes)): 7.31 min
koff, single experiments (Table S1) (dissociation at room temperature (membranes), 12 at 250-3000 nM): 0.001978 s⁻¹
koff (dissociation at room temperature (membranes), 12 at 250-3000 nM, read-out: koff, single experiments (Table S1) (converted)): 0.00172 s⁻¹
koff (dissociation at room temperature (membranes), read-out: koff, mean (Table S1) (converted)): 0.00233 s⁻¹
SMILES: CN(C)c1ccc2c(-c3cc(C(=O)NCCOCCOCc4cn(CCCC(=O)C5=C(O)C(=O)N(c6ccc(Br)cc6F)C5C5CCCCC5)nn4)ccc3C(=O)[O-])c3ccc(=[N+](C)C)cc-3oc2c1 (stereo not drawn) [compound 12]
